The values below come from patent US20230142274A1 (SIMCERE PHARMACEUTICAL CO., LTD., priority 2020, published 2023).

Holding throughout (type): in vitro ADME
The nature of series [1]: Metabolic stability in liver microsomes (CD-1 mouse). The settings on record: CD-1 mouse liver microsomes 0.5 mg/mL, compound 1 μM, NADPH 1 mM, 37° C.; for half-life at 1 μM: pH 7.4. The procedure:
(§1) 1. Source of liver microsomes: human liver microsomes (Corning 452117), CD-1 mouse liver microsomes (XENOTECH M1000)
(§2) 1. Formulation of 100 mM phosphate buffer solution (PBS): 7.098 g of Na2HPO4 was weighed and ultrasonically dissolved in 500 mL of pure water to form Solution A. 3.400 g of KH2PO4 was weighed and ultrasonically dissolved in 250 mL of pure water to form Solution B. Solution A was placed in a stirrer and Solution B was slowly added until the pH value reached 7.4, thus formulating 100 mM PBS buffer solution.
(§3) The reaction system was formulated according to Table 3 below.
(§4) 3. The reaction system was placed in a water bath at 37° C. and pre-incubated for 10 minutes. 40 μL of 10 mM NADPH solution (NADPH was dissolved in 100 mM phosphate buffer solution) was added into the reaction system, and the final concentration of NADPH was 1 mM. 40 μL of Phosphate buffer solution was used instead of the NADPH solution as a negative control. The negative control was used to rule out the influence caused by the chemical stability of the compounds per se.
(§5) 4. The reaction system was added with 4 μL of 100 μM the compound of the present disclosure and Verapamil (the positive control compound) (DMSO as the vehicle), so that the reaction was initiated. The final concentration of the compound was 1 μM.
(§6) 5. At 0.5, 15, 30, 45 and 60 minutes, after being well mixed in a vortex oscillator, 50 μL of the incubated samples were taken out respectively, and the reaction was terminated with ice acetonitrile (4-fold) containing an internal standard. The samples were centrifuged at 3220 g for 45 minutes. After the centrifugation, 90 μL of the supernatants were transferred to a sample plate and mixed well with 90 μL of ultrapure water for LC-MS/MS analysis.
(§7) All data were calculated by Microsoft Excel software. Peak areas were determined from the extracted ion chromatograms. The in-vitro half-life (t1/2) of the parent drug was determined by the linear fitting of the natural logarithm of the elimination percentage of the parent drug versus time.
(§8) The in-vitro half-life (t1/2) was calculated from the slope: […]

Series [2] can be described thus: Metabolic stability in liver microsomes (human). The settings on record: Human being liver microsomes 0.5 mg/mL, compound 1 μM, NADPH 1 mM, 37° C.; for half-life at 1 μM: pH 7.4. The protocol: as §1, §2, §3, §4, §5, §6, §7, §8
(In general: Microsomes from liver hold many membrane-bound enzymes, among them those of drug oxidation.)

Series [3] has as its system CD-1 mouse plasma. The experiment in a line: Plasma protein binding rate assay (equilibrium dialysis). The settings on record: compound 1 μM, equilibrium dialysis 6 hours at 37° C. The procedure: 1. CD-1 mouse plasma (BioIVT)
1. Formulation of a buffer solution containing 100 mM sodium phosphate and 150 mM NaCl: An alkaline solution containing Na2HPO4 (14.2 g/L) and NaCl (8.77 g/L) was formulated with ultrapure water. An acidic solution containing NaH2PO4 (12.0 g/L) and NaCl (8.77 g/L) was formulated with ultrapure water. The alkaline solution was titrated with the acidic solution until the pH value was 7.4, thus formulating the buffer solution containing 100 mM sodium phosphate and 150 mM NaCl.
2. Preparation of dialysis membrane: The dialysis membrane was immersed in ultrapure water for 60 minutes to separate the membrane into two pieces, then immersed in 20% ethanol for 20 minutes, and finally immersed in a buffer for dialysis for 20 minutes.
3. Preparation of plasma: Frozen plasma was thawed rapidly at room temperature. Thereafter, the plasma was centrifuged at 3220 g for 10 minutes at 4° C. to remove clots, and the supernatant was collected into a new centrifuge tube. The pH values of plasma were measured and recorded. The plasma with a pH value of 7 to 8 was used.
4. Formulation of compound-containing plasma samples: A 10 mM stock solution of the compound of the present disclosure or the positive control compound was diluted with DMSO to obtain a 200 μM working solution. 3 μl of the 200 μM working solution of the compound was added into 597 μl of mouse plasma to obtain a plasma sample with a final concentration of 1 μM.
5. Steps of equilibrium dialysis: The dialysis device was assembled according to the operating instructions. 120 μL of a plasma sample containing 1 μM compound was added on one side of the dialysis membrane, and an equal volume of dialysate (phosphate buffer solution) was added on the other side. Duplicate samples were set in the experiment. The dialysis plate was sealed and placed in an incubation device where the samples were incubated at 37° C. in an atmosphere containing 5% CO2 for 6 hours with a rotational speed of about 100 rpm. After the incubation was complete, the sealing membrane was removed. 50 μl of samples were respectively aspirated from the buffer solution side and the plasma side of each well and transferred into different wells of a new plate. 50 μl of blank plasma was added into the sample obtained from the phosphate buffer solution side, and an equal volume of blank phosphate buffer solution was added into the plasma sample, followed by the addition of 300 μl of acetonitrile containing the internal standard to precipitate protein. The sample was vortexed for 5 minutes and centrifuged at 3220 g for 30 minutes at 4° C. 100 μl of the supernatant was aspirated and transferred to the sample plate, mixed well with 100 μL of ultrapure water, and used for LC-MS/MS analysis.
The peak areas of the compounds on the buffer solution side and the plasma side were determined. The formula for calculating the plasma protein binding rate of the compound was as follows:
% Free rate=(the ratio of the peak area of the compound to the peak area of the internal standard on the buffer solution side/the ratio of the peak area of the compound to the peak area of the internal standard on the plasma side)×100
% Binding rate=100−% free rate

As a reminder, the half-life is the time needed for the level to fall by half in the phase considered. Read a low half-life as rapid decline. Take `CC(C)OC(=O)Nc1ccc(-c2cnc([C@H]3CC[C@H](NC(=O)OC(C)C)CC3)s2)c(S(=O)(=O)C(C)C)c1` [Example 2, isopropyl trans-N-[4-[2-[4-(isopropoxycarbonylamino)cyclohexyl]thiazol-5-yl]-3-isopropylsulfonyl-phenyl]carbamate]: the figures for the half-life at 1 μM in series [1] and in series [2] were 4.27 h and 2.42 h, respectively. In series [3], the “% Binding Rate” value is on record as 99.4%^.

As to `CC(C)OC(=O)Nc1ccc(-c2cnc([C@H]3CC[C@H](NC(=O)OC(C)C)CC3)s2)c(P(C)(C)=O)c1` [Example 1, isopropyl trans-N-[3-dimethylphosphoryl-4-[2-[4-(isopropoxycarbonylamino)cyclohexyl]thiazol-5-yl]phenyl]carbamate], the half-life at 1 μM in series [1] and in series [2] was more than 8.33 h each time. Moreover, the “% Binding Rate” value in series [3] worked out at 94%.

Regarding `COc1ccc(-c2ccc(-c3cnc([C@H]4CC[C@H](NC(=O)OC(C)C)CC4)s3)c([S@@](=N)(=O)C3CC3)c2)cn1` (stereo in doubt) [Example 94], the t1/2 is 3.4 h in series [1] and 3.85 h in series [2]. Further, the “% Binding Rate” value in series [3] is reported as 99.8%^.

In the case of `CC(C)OC(=O)Nc1ccc(-c2cnc([C@H]3CC[C@H](NC(=O)OC(C)C)CC3)s2)c(S(=O)(=O)C2CC2)c1` [Example 33, isopropyl trans-N-[3-cyclopropylsulfonyl-4-[2-[4-(isopropoxycarbonylamino)cyclohexyl]thiazol-5-yl]phenyl]carbamate], the results for the half-life at 1 μM in series [1] and in series [2] were 4.13 h and more than 8.33 h, respectively. Also, in series [3], the “% Binding Rate” value worked out at 99%.

`Cc1cc(Nc2ccc(-c3cnc([C@H]4CC[C@H](NC(=O)OC(C)C)CC4)s3)c(P3(=O)CCCC3)c2)n[nH]1` [Example 47, isopropyl trans-N-[4-[5-[4-[(5-methyl-1H-pyrazol-3-yl)amino]-2-(1-oxidophospholan-1-yl)phenyl]thiazol-2-yl]cyclohexyl]carbamate]: the half-life at 1 μM in series [1] stood at 7.28 h; in series [2], 5.05 h. The “% Binding Rate” value in series [3] is given as 99%.

Turning to `Cc1cc(Nc2ccc(-c3cnc([C@H]4CC[C@H](NC(=O)OC(C)C)CC4)s3)c(S(=O)(=O)C3COC3)c2)n[nH]1` [Example 92, isopropyl trans-N-[4-[5-[4-[(5-methyl-1H-pyrazol-3-yl)amino]-2-(oxetan-3-ylsulfonyl)phenyl]thiazol-2-yl]cyclohexyl]carbamate], the half-life at 1 μM in series [1] was 5.77 h; in series [2] it was 6.37 h. Further, the “% Binding Rate” value in series [3] is listed as 98.8%^.

Consider `CC(C)OC(=O)Nc1ccc(-c2cnc(C3CCC(NC(=O)OC(C)C)CC3)s2)c(S(=N)(=O)C(C)C)c1` (stereo not drawn) [Example 3, isopropyl trans-N-[4-[2-[4-(isopropoxycarbonylamino)cyclohexyl]thiazol-5-yl]-3-(isopropylsulfonimidoyl)phenyl]carbamate], for which the half-life at 1 μM is more than 8.33 h in series [1] and 7.95 h in series [2]. Also, the “% Binding Rate” value in series [3] is on record as 97%.

`CC(C)OC(=O)N[C@H]1CC[C@H](c2ncc(-c3ccc(Nc4cc5ccccn5n4)cc3S(=O)(=O)C3CC3)s2)CC1` [Example 57, isopropyl trans-(4-(5-(2-(cyclopropylsulfonyl)-4-(pyrazolo[1,5-a]pyridin-2-ylamino)phenyl)thiazol-2-yl)cyclohexyl)carbamate]: the half-life at 1 μM in series [1] was determined as 2.1 h; in series [2], 0.933 h. Moreover, the “% Binding Rate” value in series [3] was 99.9%^.

Consider `CC(C)OC(=O)N[C@H]1CC[C@H](c2ncc(-c3ccc(Nc4cn(C)nn4)cc3S(=N)(=O)C3CC3)s2)CC1` (stereo partly drawn) [Example 54], for which the half-life at 1 μM in series [1] and in series [2] was more than 8.33 h each time. In series [3], the “% Binding Rate” value was determined as 95%.

Turning to `CC(C)OC(=O)N[C@H]1CC[C@H](c2ncc(-c3ccc(NC(=O)NCc4ccccc4)cc3S(=N)(=O)C3CC3)s2)CC1` (stereo partly drawn) [Example 65, isopropyl trans-(4-(5-(4-(3-benzylureido)-2-(cyclopropanesulfonimidoyl)phenyl)thiazol-2-yl)cyclohexyl)carbamate], the half-life at 1 μM in series [1] came to 1.33 h; in series [2] it was 1.85 h. For the same compound, the “% Binding Rate” value in series [3] came out at 97%.

Take `CC(C)OC(=O)Nc1ccc(-c2cnc([C@H]3CC[C@H](NC(=O)OC(C)C)CC3)s2)c(S(=N)(=O)C2CC2)c1` (stereo partly drawn) [Example 68, isopropyl trans-N-[3-(cyclopropylsulfonimidoyl)-4-[2-[4-(isopropoxycarbonylamino)cyclohexyl]thiazol-5-yl]phenyl]carbamate]: the half-life at 1 μM in series [1] amounted to 2.82 h; in series [2], 3.12 h. In addition, the “% Binding Rate” value in series [3] was found to be 97%.

With `Cc1cc(Nc2ccc(-c3cnc([C@H]4CC[C@H](NC(=O)OC(C)C)CC4)s3)c(S(=N)(=O)C3CC3)c2)n(C)n1` (stereo partly drawn) [Example 98, isopropyl trans-(4-(5-(2-(cyclopropanesulfonimidoyl)-4-((1,3-dimethyl-1H-pyrazol-5-yl)amino)phenyl)thiazol-2-yl)cyclohexyl)carbamate], the half-life at 1 μM in series [1] is more than 8.33 h; in series [2] it was 2.28 h. The “% Binding Rate” value in series [3] stood at 99%.

Consider `Cc1cc(Nc2ccc(-c3cnc([C@H]4CC[C@H](NC(=O)OC(C)C)CC4)s3)c(P3(=O)CCC3)c2)n[nH]1` [Example 103, isopropyl trans-(4-(5-(4-((5-methyl-1H-pyrazol-3-yl)amino)-2-(1-oxophosphetan-1-yl)phenyl)thiazol-2-yl)cyclohexyl)carbamate], for which the half-life at 1 μM in series [1] and in series [2] was more than 8.33 h in each case. Further, in series [3], the “% Binding Rate” value came out at 98%.

As for `CC(C)OC(=O)NC1CCC(c2ncc(-c3ccc(Nc4ccc(F)cn4)cc3S(=N)(=O)C3CC3)s2)CC1` (stereo not drawn) [Example 81, isopropyl trans-N-[4-[5-[2-(cyclopropylsulfonimidoyl)]-4-[(5-fluoro-2-pyridyl)amino]phenyl]thiazol-2-yl]cyclohexyl]carbamate], the half-life at 1 μM turned out to be 3.5 h in series [1] and 5.32 h in series [2]. The “% Binding Rate” value in series [3] came out at 99.7%^.

On to `Cc1cc(Nc2ccc(-c3cnc([C@H]4CC[C@H](NC(=O)OC(C)C)CC4)s3)c(S(=O)(=O)C3CC3)c2)nn1C` [Example 49, isopropyl trans-(4-(5-(2-(cyclopropylsulfonyl)-4-((1,5-dimethyl-1H-pyrazol-3-yl)amino)phenyl)thiazol-2-yl)cyclohexyl)carbamate], for which the half-life at 1 μM was determined as 2.08 h in series [1] and 0.933 h in series [2]. Moreover, the “% Binding Rate” value in series [3] is recorded as 97%.
